Experimental data reported in ChEMBL document CHEMBL4610024, “The ceramide analogue N-(1-hydroxy-3-morpholino-1-phenylpropan-2-yl)decanamide induces large lipid droplet accumulation and highlights the effect of LAMP-2 deficiency on lipid droplet degradation” (Bioorg Med Chem Lett, 2020).
Calls of active or inactive are those of the source.

Tests used:
L929 [1] = assay: Induction of large autophagosome formation in CRISPR/Cas9-mediated LAMP2 knocked out mouse L cells assessed as loosened multilamellar bodies at 40 uM measured after 17 hrs by transmission electron microscopy analysis; assay type: functional, cell-based
L929 [2] = assay: Induction of large autophagosome formation in CRISPR/Cas9-mediated LAMP2 knocked out mouse L cells assessed as decrease in multilamellar bodies layers at 40 uM measured after 17 hrs by transmission electron microscopy analysis; assay type: functional, cell-based
L929 [3] = assay: Induction of autophagy in CRISPR/Cas9-mediated LAMP2 knocked out mouse L cells assessed as formation of LC3 puncta rim in other part of cell at 40 uM measured after 17 hrs by Hoechst 33342 staining based assay; assay type: functional
L929 [4] = assay: Induction of autophagy in CRISPR/Cas9-mediated LAMP2 knocked out mouse L cells assessed as formation of LC3 puncta rim around large autophagosome at 40 uM measured after 17 hrs by Hoechst 33342 staining based assay; assay type: functional, cell-based
L929 [5] = assay: Induction of lipid droplet degradation in CRISPR/Cas9-mediated LAMP2 knocked out mouse L cells assessed as decrease in number of lipid droplet with long axis exceeding 1 um at 40 uM measured after 17 hrs by transmission electron microscopy analysis; assay type: functional, cell-based
L929 [6] = assay: Induction of lipid droplet degradation in CRISPR/Cas9-mediated LAMP2 knocked out mouse L cells at 40 uM measured after 17 hrs by LipiDye staining based assay; assay type: functional, cell-based
[7] = biological target: T1, Lysosome-associated membrane glycoprotein 2 (Mus musculus) (UniProt P17047); assay: Induction of LAMP2-mediated lipid droplet enlargement in mouse L cells at 40 uM measured after 17 hrs by LipiDye staining based assay; assay type: cell-based; conditions: L929
T1 sequence (whole entry): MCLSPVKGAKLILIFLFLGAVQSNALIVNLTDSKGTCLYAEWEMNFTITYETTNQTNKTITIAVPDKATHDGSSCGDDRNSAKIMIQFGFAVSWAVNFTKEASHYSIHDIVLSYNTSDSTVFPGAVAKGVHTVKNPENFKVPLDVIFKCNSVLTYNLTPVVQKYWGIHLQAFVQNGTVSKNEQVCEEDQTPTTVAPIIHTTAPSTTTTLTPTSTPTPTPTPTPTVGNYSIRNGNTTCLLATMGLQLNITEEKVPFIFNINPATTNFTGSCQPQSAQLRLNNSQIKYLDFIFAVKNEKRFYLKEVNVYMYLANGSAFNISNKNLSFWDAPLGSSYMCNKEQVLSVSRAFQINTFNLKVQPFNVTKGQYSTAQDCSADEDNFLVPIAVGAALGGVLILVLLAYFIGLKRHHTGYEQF

[8] = biological target: T1, Lysosome-associated membrane glycoprotein 2 (Mus musculus); assay: Induction of LAMP2-mediated autophagy in mouse L cells assessed as increase in LC3 puncta at 40 uM measured after 17 hrs by Hoechst 33342 staining based assay; assay type: cell-based; conditions: L929
L929 [9] = assay: Induction of large autophagosome formation in CRISPR/Cas9-mediated LAMP2 knocked out mouse L cells assessed as accumulation of abnormal multilamellar bodies at 40 uM measured after 17 hrs by transmission electron microscopy analysis; assay type: functional, cell-based
L929 [10] = assay: Induction of large autophagosome formation in CRISPR/Cas9-mediated LAMP2 knocked out mouse L cells assessed as degradation of multilamellar bodies at 40 uM measured after 17 hrs by transmission electron microscopy analysis; assay type: functional, cell-based
[11] = biological target: T1, Lysosome-associated membrane glycoprotein 2 (Mus musculus); assay: Induction of LAMP2-mediated lipid droplet degradation in mouse L cells assessed as increase in length of long axis of lipid droplet at 40 uM measured after 17 hrs by transmission electron microscopy analysis; assay type: cell-based; conditions: L929
L929 [12] = assay: Induction of autophagy in CRISPR/Cas9-mediated LAMP2 knocked out mouse L cells assessed as increase in […] puncta at 40 uM measured after 17 hrs by Hoechst 33342 staining based assay; assay type: functional, cell-based

Measured: Activity

CCCCCCCCCC(=O)NC(CN1CCOCC1)C(O)c1ccccc1 (configuration not stated)
inactive: L929 [3] | L929 [5] | L929 [6]
active: all other assays above
